This experiment deals with T1, Choline Specific Transport System (HUCT) (Rattus norvegicus, UniProt Q9JMD7).
T1 construct: from tissue; host or cells: brain of living Wistar rats (in vivo, ICV microinfusion, EEG read-out)
T1 sequence (Q9JMD7 1-580): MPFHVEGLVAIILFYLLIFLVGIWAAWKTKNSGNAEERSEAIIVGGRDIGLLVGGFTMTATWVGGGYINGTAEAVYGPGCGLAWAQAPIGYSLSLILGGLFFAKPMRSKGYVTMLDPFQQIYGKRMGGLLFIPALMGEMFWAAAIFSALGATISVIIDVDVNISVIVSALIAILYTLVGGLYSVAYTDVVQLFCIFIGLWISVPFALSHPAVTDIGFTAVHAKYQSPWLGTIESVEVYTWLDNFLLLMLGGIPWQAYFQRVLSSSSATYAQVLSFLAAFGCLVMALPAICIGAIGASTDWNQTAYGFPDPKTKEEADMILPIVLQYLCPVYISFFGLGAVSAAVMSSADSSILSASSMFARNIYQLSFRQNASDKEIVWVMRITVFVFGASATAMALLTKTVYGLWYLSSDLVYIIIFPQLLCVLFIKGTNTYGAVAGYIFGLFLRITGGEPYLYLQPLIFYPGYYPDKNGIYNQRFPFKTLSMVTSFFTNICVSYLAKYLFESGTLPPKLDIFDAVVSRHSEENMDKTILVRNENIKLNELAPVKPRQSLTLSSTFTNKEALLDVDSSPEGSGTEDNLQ
The experiment is described as follows: EEG after ICV Hemicholinium-3 (choline uptake blocker) pretreatment. The note with it: rats, i.p. at the active dose after Hch3 pretreatment. In kind it is in vivo. Here is the method: FIG. 4B—Effect on EEG spectrum power after treatment with PC-1 (5 mg i.p.) administered 15 min after microinfusion of Hch3 (0.1 ng/0.5 μl) in the III ventricule. As in FIG. 4a, time (min) is reported in abscissa, the EEG spectrum power expressed as μV^2/s is reported in ordinate. Graphics report the EEG spectrum total power (0.25-16 Hz).

These results are taken from patent publication US20030166721A1, “Choline derivative for the treatment of alzheimer's disease” (priority 2000, published 2003).

For the compound `CC(C)(C)C(=O)OCC[N+](C)(C)C.[I-]` [PC-1, pivaloylcholine iodide], the “Alert response and EEG desynchronization after Hch3 pretreatment” value is listed as “induced neither alert response not EEG desynchronization”.
